The term IC50 denotes the concentration that inhibits the measured activity by half.

Type in all cases: cell-based
For one test, the target named is PI 3-kinase delta (Homo sapiens (Human), UniProt O00329). Nature of the test: Cellular p-Akt (S473) SureFire assay, Rat-1_PI3Kdelta cells (Assay J). The following applies: p-AKT (Ser473) in Rat-1 cells expressing myr-HA-hp110 delta, 1 h compound; read-out: Assay J PI3Kδ IC50. The source says: (§1) Cellular Assays for PI 3-Kinase Alpha (H), Beta (I) and Delta (J)
(§2) AlphaScreen (Amplified Luminescent Proximity Homogeneous Assay, ALPHA, Perkin Elmer) is a non-radioactive bead-based proximity assay technology to study biomolecular interactions in a homogenous microtiter plate format. The brand name SureFire denotes AlphaScreen assays that are adapted to quantify the phosphorylation of endogenous cellular proteins in cell lysates, by using matched antibody pairs, which consist of an anti-phospho-kinase and an anti-kinase antibody. The assay allows characterization of kinase signaling in cells as well as measurement of kinase inhibitor effects.
(§3) Rat-1 cell lines stably overexpressing activated PI 3-kinase class I isoforms Rat-1 pBABEpuro Myr-HA-hp110 delta clone 5 (Rat-1_PI3Kdelta) and Rat-1 pBABEpuro Myr-HA-hp110 alpha clone 6 (Rat-1_PI3Kalpha) and Rat-1 pBABEpuro Myr-HA-hp110 beta (Rat-1_PI3beta) were cultivated in complete growth medium (DMEM high glucose, 10% (v/v) fetal bovine serum, 1% (v/v) MEM NEAA, 10 mM HEPES, 2 mM L-glutamine, puromycin (10 μg/mL for Rat-1_PI3Kdelta and Rat-1_PI3Kalpha, 4 ug/mL for Rat-1_PI3beta), 1% (v/v) Pen/Strep) to 90% confluency at 37° C./5% CO2/90% humidity in a humidified CO2 incubator and were split twice a week. The following materials were used for p-AKT(5473) detection in Rat-1 cell lysates: Dulbecco's modified Eagle's medium (DMEM) high glucose (Gibco Invitrogen, Basel, Switzerland, Cat. No. 41965), heat inactivated fetal bovine serum, qualified (HI FBS; Gibco Invitrogen, Basel, Switzerland, Lot. No. 16140), MEM non essential amino acids (NEAA; Gibco Invitrogen, Basel, Switzerland, Cat. No. 11140), HEPES (Gibco Invitrogen, Basel, Switzerland, Cat. No. 15630), penicillin/streptomycin (Pen/Strep, 100×; Gibco Invitrogen, Basel, Switzerland, Cat. No. 15140-122), L-glutamine (Gibco Invitrogen, Basel, Switzerland, Cat. No. 25030), puromycin (Sigma Aldrich, Buchs, Switzerland, Cat. No. P9620), DMSO (MERCK, Dietikon, Switzerland, Cat. No. 8.02912.2500), H2O, MilliQ-H2O unless otherwise stated (MILLIPORE QGARDOOR1, Millipore, Zug, Switzerland), bovine serum albumine (BSA; Sigma Aldrich, Buchs, Switzerland Cat. No. A8412), SureFire p-Akt 1/2 (Ser473) Assay Kit (Perkin Elmer, Schwerzenbach, Switzerland, Cat. No. TGRAS50K).
(§4) The p-Akt (S473) SureFire assay measures the phosphorylation of endogenous cellular Akt 1/2 at Ser473 in cell lysates. Using Rat-1 cells stably expressing myr-HA-tagged versions of the human PI3Kdelta, PI3Kalpha, or PI3Kbeta p110 catalytic subunit isoforms, the assay was developed as a two-plate protocol in a 384-well format.
(§5) For compound testing, the cells were seeded at a density of 4000 (Rat-1_PI3Kdelta), 7500 (Rat-1_PI3Kalpha), or 6200 (Rat-1_PI3Kbeta) cells in 20 μl complete growth medium into cell culture treated 384-well plates and were grown at 37° C./5% CO2/90% humidity for 24 h. Shortly before compound transfer, the complete medium was removed, 30 μl assay buffer (DMEM high glucose, 1×MEM NEAA, 10 mM HEPES, 2 mM L-glutamine, 0.1% (w/v) BSA) was added and 10 μl of the compound predilutions were transferred to the cells. After treatment with compound for 1 h, the cells were lysed by the addition of 20 μl lysis buffer supplemented with 0.24% (w/v) BSA. Detection of p-AKT (Ser473) was performed with the SureFire p-Akt 1/2 (Ser473) Assay Kit according to the manufacturer's instructions using 5 ul of cell lysate in a total detection volume of 12 μl.
(§6) IC50 values of the percentage inhibition of each compound at 8 concentrations (usually 10, 3.0, 1.0, 0.3, 0.1, 0.030, 0.010 and 0.003 μM) n=2 were derived by fitting a sigmoidal dose-response curve to a plot of assay readout over inhibitor concentration as described. All fits were performed with the program XLfit4 (ID Business Solutions, Guildford, UK).

The next test concerns the target PI 3-kinase alpha (Homo sapiens (Human), UniProt P42336). Nature of the test: Cellular p-Akt (S473) SureFire assay, Rat-1_PI3Kalpha cells (Assay H). The following applies: p-AKT (Ser473) in Rat-1 cells expressing myr-HA-hp110 alpha, 1 h compound; read-out: Assay H PI3Kα IC50.
Text: as §1, §2, §3, §4, §5, §6

Test [1] relates to IL-8-induced neutrophil shape change in human whole blood. The test is described as follows: Whole blood neutrophil shape change assay (Assay L). Conditions: 2 nM IL-8, neutrophil shape change by flow cytometry, read-out: Assay L WBSC IC50. The procedure: Whole Blood Neutrophil Shape Change Assay (L)
A flow cytometry based method used to measure the inhibition of IL-8 (interleukin-8)-induced neutrophil shape change in human whole blood.
IL-8 was made up to 2 μM stocks in 0.1% bovine serum albumin/PBS and stored at −80° C. On the day IL-8 was diluted in PBS (phosphate buffered saline) 10 minutes before use. IL-8 was used at final concentration of 2 nM and a concentration range from […] to 200 nM for the donor dose response curve.
Assay fixative solution was prepared fresh each day from 10× concentrated CellFIX™ solution diluted 1:10 in sterile distilled water and then 1:4 with PBS. Assay fixative solution was kept on ice prior to use.
A 10× lysis buffer was prepared in advance by dissolving 20.75 g […] and 2.5 g KHCO3 in 250 ml sterile H2O. This 10× lysis buffer was filtered under sterile conditions and stored for up to two weeks at 4° C. On the day a 1× lysis solution was prepared with sterile distilled H2O and kept on ice prior to use.
The test compounds were prepared as 10 mM stock solutions in 100% DMSO and were stored at 4° C. Once in use for an assay 10 mM stock compounds were thawed and stored at RT protected from light. Compound dilutions were prepared fresh on the day. The first series of dilutions in 100% DMSO were done first thing in the morning. Only once blood had been collected and arrived in laboratory was the next set of dilutions into PBS carried out (1:10 PBS, 10% DMSO). This limited the exposure of diluted compound to plastic and made sure the exposure timing was consistent between assays. Compounds were added to the deep 96 well plates at 10× the final desired concentration (with addition of blood final [DMSO]=1%).
Table 3 illustrates the compound dilution series used in human whole blood neutrophil shape change assay.
On the day of running the assay, assay fixative buffer and 1× lysis solutions were prepared and stored on ice. Compound dilutions in 100% DMSO were prepared as described previously. Human whole blood was collected in K2 EDTA Vacutainers. Once blood was in the laboratory, compound dilutions into PBS were carried out as described previously and depicted in Table 1. 10 μl of 10× final compound concentration was added to appropriate wells of a deep 96-well plate except controls where 10 μl of 10% DMSO was added in place of compound, as outlined in the dilution series in Table 1. The outer wells of the deep well assay plate were filled with 1200 μl of sterile distilled H2O in an effort to limit edge effects (rows A1-H1, A1-A12, A12-H12). An IL-8 dose response was determined for each blood donor examined, to monitor the donor response to IL-8. At this step in assay preparation for the IL-8 dose response samples 10 μl of PBS was added to designated wells. In addition the assay window without DMSO was also assessed each day. For such samples at this step in assay preparation 10 μl of PBS was added in the place of 10% DMSO.
80 μl of whole blood was added to compound/10% DMSO/PBS and mixed once gently upon addition. Lids were placed on the 96 well plates and samples were incubated for 15 minutes at 37° C. in a water-bath.
Following the compound pre-incubation 10× final IL-8 was added to appropriate wells (10 μl of 20 nM working stock IL-8, final IL-8 concentration in blood=2 nM) and 10 μl of PBS was added to the un-stimulated controls. 10× final dose response range IL-8 was also added to designated wells (final concentration range on assay plate was 200 nM to 0.0005 nM, 1:5 serial dilution in PBS). The IL-8 and PBS were added to appropriate wells across all assay plates in the same sequence as the blood to compound addition. Once added to all assay plates, samples were mixed quickly once to ensure even distribution of IL-8. Samples were incubated for 5 minutes at 37° C. in a water-bath. Following the incubation sample plates were transferred to ice where 250 μl of chilled Assay Fixative Buffer was added promptly to all wells. […]

In the next test the target is PI 3-kinase beta (Homo sapiens (Human), UniProt P42338). Nature of the test: Cellular p-Akt (S473) SureFire assay, Rat-1_PI3Kbeta cells (Assay I). The following applies: p-AKT (Ser473) in Rat-1 cells expressing myr-HA-hp110 beta, 1 h compound; read-out: Assay I PI3Kβ IC50.
Text: as §1, §2, §3, §4, §5, §6

PI 3-kinase alpha, sequence (P42336 whole entry): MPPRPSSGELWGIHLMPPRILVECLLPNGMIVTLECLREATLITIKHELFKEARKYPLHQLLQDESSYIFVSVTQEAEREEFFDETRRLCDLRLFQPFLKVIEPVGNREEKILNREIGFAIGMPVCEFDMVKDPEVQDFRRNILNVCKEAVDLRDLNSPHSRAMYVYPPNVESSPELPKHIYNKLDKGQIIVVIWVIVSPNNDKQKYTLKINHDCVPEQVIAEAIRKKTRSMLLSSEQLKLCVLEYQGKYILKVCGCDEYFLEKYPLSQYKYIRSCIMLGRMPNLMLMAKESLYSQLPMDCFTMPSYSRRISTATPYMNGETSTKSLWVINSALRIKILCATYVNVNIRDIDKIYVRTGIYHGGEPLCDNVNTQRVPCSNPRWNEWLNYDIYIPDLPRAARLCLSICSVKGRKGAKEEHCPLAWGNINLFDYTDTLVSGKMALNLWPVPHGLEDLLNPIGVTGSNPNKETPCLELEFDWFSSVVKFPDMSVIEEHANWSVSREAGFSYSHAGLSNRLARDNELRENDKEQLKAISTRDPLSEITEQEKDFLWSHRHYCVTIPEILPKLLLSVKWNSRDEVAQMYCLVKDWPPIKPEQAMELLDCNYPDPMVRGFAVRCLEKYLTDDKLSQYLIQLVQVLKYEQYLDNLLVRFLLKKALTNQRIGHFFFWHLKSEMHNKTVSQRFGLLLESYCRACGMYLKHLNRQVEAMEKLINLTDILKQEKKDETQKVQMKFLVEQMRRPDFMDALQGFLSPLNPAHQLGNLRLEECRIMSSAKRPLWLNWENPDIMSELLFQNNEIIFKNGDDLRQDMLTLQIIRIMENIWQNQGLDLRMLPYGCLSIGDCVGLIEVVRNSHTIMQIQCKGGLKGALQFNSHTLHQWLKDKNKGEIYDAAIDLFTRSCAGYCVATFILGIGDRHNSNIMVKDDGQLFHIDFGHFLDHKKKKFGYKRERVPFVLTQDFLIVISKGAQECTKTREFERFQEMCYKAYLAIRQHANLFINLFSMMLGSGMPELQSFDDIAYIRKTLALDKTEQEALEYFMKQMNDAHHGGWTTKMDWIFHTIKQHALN
PI 3-kinase alpha, sequence (Q63787 whole entry partner): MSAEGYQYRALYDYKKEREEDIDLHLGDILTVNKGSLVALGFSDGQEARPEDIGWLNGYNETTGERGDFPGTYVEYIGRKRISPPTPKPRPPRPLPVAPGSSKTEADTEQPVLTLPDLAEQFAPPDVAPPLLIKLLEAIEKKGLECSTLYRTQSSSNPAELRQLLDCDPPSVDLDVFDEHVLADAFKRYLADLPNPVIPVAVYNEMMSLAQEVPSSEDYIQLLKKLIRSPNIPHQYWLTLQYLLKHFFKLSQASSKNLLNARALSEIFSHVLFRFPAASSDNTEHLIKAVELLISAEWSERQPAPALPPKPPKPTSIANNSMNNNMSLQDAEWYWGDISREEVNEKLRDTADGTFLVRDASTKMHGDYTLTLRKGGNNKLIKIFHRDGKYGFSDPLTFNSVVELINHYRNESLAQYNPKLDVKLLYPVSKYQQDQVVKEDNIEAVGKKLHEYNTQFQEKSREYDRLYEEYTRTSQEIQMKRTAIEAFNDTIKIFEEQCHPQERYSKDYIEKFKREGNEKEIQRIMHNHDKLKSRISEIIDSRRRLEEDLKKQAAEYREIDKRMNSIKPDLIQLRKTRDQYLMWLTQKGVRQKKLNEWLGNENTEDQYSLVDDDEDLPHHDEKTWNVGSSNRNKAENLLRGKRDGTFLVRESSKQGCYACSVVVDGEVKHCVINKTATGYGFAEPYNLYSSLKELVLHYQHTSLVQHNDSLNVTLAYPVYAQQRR
PI 3-kinase delta, sequence (O00329 whole entry): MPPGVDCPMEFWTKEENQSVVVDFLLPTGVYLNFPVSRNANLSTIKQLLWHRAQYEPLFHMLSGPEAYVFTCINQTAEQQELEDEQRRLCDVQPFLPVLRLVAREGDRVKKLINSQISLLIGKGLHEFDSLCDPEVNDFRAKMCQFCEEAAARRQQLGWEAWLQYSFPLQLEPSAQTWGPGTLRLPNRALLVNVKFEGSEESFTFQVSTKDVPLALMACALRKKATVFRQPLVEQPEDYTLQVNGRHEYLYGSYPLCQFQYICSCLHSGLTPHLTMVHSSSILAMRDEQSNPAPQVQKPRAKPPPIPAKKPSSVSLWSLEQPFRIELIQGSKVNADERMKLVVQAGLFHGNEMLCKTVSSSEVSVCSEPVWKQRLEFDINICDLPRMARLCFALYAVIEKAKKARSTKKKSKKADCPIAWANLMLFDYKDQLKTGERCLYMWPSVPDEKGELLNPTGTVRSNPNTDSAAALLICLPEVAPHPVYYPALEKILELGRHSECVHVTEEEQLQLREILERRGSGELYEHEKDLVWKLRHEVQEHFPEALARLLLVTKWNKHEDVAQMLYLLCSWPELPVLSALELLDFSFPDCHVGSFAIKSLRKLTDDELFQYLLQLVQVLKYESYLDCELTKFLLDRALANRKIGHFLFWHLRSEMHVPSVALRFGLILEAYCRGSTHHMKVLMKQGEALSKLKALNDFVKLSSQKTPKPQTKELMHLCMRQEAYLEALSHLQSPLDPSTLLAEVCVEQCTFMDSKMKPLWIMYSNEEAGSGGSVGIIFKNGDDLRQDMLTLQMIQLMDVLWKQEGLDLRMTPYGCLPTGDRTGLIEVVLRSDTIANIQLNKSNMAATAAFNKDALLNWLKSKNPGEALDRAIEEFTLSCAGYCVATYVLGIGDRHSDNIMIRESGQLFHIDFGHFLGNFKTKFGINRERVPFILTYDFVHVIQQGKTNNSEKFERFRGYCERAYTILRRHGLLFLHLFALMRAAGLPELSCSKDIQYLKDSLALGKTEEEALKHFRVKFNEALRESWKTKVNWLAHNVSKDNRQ
PI 3-kinase delta, sequence (Q63787 whole entry partner): as the sequence (Q63787 whole entry partner) above
PI 3-kinase beta, sequence (P42338 whole entry): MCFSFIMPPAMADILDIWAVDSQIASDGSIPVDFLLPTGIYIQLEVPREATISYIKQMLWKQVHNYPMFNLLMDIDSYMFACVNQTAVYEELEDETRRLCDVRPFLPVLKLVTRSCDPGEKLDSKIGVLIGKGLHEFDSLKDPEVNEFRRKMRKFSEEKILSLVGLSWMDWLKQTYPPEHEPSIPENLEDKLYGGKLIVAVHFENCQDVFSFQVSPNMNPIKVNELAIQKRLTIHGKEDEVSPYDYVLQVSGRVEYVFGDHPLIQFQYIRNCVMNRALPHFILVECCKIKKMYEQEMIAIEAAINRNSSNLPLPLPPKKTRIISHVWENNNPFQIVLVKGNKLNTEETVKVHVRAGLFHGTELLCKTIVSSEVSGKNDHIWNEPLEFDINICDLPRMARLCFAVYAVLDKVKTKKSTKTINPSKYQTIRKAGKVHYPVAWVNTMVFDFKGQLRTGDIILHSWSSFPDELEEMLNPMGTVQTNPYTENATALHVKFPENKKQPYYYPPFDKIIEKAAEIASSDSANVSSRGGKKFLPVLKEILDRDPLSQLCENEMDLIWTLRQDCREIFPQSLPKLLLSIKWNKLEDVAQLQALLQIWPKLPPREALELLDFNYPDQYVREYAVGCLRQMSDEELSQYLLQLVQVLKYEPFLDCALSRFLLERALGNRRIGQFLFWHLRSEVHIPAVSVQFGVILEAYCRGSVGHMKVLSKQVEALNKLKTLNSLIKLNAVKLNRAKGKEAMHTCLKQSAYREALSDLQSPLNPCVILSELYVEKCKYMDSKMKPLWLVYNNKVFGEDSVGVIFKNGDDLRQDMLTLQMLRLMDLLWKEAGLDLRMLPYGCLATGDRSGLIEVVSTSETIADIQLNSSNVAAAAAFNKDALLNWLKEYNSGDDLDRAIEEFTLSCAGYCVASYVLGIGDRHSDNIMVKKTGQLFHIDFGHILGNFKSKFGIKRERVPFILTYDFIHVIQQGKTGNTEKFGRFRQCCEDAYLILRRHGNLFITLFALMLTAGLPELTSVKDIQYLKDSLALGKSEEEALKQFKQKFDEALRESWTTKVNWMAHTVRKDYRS
PI 3-kinase beta, sequence (Q63787 whole entry partner): as the sequence (Q63787 whole entry partner) above

Take `Cc1ccc(S(=O)(=O)NC2CC3(CC(O)C3)C2)cc1-c1cncc(-c2cn(C)nc2C)n1` (stereo not shown) [Example 6, 3-[6-(1,3-Dimethyl-1H-pyrazol-4-yl)-pyrazin-2-yl]-N-(6-hydroxy-spiro[3.3]hept-2-yl)-4-methyl-benzenesulfonamide]: the half-inhibitory concentration (IC50) on PI 3-kinase delta was 0.515 µM; on PI 3-kinase alpha, 0.709 µM; in test [1], 0.374 µM; at PI 3-kinase beta, 1.05 µM.
As to `Cc1ccc(S(=O)(=O)NC[C@H]2C[C@@H](O)C2)cc1-c1cncc(-c2cn(C)nc2C)n1` [Example 7, Cis 3-[6-(1,3-Dimethyl-1H-pyrazol-4-yl)-pyrazin-2-yl]-N-(3-hydroxy-cyclobutylmethyl)-4-methyl-benzenesulfonamide], the half-maximal inhibitory concentration (IC50) in test [1] stood at 0.212 µM.
Consider `Cc1ccc(S(=O)(=O)N[C@H]2CC[C@H](O)CC2)cc1-c1cncc(-c2csc(CN3CCOCC3)c2)n1` [Example 12, Trans N-(4-Hydroxy-cyclohexyl)-4-methyl-3-[6-(5-morpholin-4-ylmethyl-thiophen-3-yl)-pyrazin-2-yl]-benzenesulfonamide], for which the half-maximal inhibitory concentration (IC50) stood at 0.306 µM on PI 3-kinase delta, 1.14 µM on PI 3-kinase alpha, 0.83 µM in test [1] and 1.11 µM at PI 3-kinase beta.
In the case of `Cc1cc(-c2cncc(-c3cc(S(=O)(=O)NC[C@H]4C[C@@H](O)C4)ccc3C)n2)n(C)n1` [Example 13, Cis 3-[6-(2,5-Dimethyl-2H-pyrazol-3-yl)-pyrazin-2-yl]-N-(3-hydroxy-cyclobutylmethyl)-4-methyl-benzenesulfonamide], in test [1], the half-maximal inhibitory concentration (IC50) turned out to be 0.847 µM.

The values above are taken from US9862711B2, “Pyrazine derivatives as phosphatidylinositol 3-kinase inhibitors” (NOVARTIS AG, priority 2014, dated 2018).
